Data taken from patent US12187723B2 (BRISTOL-MYERS SQUIBB COMPANY, priority 2019, dated 2025).

Tests used:
human TLR9 = target: T1, human TLR9 (Homo sapiens, UniProt Q9NR96); test: TLR9 inhibition reporter assay (HEK-Blue SEAP); type: cell-based; conditions: HEK-Blue cells overexpressing human TLR9, ODN2006 5 nM, 22 hour incubation
T1 construct: host or cells: HEK-Blue cells
T1 sequence (Q9NR96 26-1032): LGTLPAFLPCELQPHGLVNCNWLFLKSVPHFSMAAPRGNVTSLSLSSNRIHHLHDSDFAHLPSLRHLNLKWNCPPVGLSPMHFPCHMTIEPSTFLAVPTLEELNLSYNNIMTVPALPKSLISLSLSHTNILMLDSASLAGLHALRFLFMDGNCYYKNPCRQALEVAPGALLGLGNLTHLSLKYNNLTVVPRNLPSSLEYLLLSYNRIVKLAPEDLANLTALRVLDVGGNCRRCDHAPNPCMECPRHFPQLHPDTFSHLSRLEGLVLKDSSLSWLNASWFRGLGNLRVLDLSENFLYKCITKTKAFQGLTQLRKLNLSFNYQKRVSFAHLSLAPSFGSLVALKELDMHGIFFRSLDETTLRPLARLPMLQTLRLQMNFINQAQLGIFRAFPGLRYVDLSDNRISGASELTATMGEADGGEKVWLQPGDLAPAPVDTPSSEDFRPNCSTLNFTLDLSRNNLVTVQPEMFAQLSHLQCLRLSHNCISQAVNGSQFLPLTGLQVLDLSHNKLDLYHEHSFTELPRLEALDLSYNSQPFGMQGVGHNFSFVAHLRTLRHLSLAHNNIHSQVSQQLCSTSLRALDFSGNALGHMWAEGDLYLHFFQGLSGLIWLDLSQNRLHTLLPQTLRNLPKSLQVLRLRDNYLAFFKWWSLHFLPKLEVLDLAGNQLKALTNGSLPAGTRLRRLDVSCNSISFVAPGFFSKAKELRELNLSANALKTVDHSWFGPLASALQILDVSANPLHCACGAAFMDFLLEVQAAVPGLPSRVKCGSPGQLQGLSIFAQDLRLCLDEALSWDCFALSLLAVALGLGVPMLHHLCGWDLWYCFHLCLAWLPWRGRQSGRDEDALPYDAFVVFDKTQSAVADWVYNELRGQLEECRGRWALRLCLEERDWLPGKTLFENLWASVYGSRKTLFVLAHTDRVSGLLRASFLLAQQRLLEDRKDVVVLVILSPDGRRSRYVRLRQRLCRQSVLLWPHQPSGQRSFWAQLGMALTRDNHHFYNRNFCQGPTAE
In short: (§1)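 Dose–response from 0.05 nM to 50 μM was run in HEK-Blue human TLR7, TLR8 and TLR9 reporter cells. After 30 min at room temperature with compound, ligand was added (TLR7 gardiquimod 7.5 μM; TLR8 R848 15.9 μM; TLR9 ODN2006 5 nM) and SEAP measured next day, at 22 h.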

human TLR8 = target: T2, human TLR8 (Homo sapiens, UniProt Q9NR97); test: TLR8 inhibition reporter assay (HEK-Blue SEAP); type: cell-based; conditions: HEK-Blue cells overexpressing human TLR8, R848 15.9 μM, 22 hour incubation
T2 construct: host or cells: HEK-Blue cells
T2 sequence (Q9NR97 27-1041): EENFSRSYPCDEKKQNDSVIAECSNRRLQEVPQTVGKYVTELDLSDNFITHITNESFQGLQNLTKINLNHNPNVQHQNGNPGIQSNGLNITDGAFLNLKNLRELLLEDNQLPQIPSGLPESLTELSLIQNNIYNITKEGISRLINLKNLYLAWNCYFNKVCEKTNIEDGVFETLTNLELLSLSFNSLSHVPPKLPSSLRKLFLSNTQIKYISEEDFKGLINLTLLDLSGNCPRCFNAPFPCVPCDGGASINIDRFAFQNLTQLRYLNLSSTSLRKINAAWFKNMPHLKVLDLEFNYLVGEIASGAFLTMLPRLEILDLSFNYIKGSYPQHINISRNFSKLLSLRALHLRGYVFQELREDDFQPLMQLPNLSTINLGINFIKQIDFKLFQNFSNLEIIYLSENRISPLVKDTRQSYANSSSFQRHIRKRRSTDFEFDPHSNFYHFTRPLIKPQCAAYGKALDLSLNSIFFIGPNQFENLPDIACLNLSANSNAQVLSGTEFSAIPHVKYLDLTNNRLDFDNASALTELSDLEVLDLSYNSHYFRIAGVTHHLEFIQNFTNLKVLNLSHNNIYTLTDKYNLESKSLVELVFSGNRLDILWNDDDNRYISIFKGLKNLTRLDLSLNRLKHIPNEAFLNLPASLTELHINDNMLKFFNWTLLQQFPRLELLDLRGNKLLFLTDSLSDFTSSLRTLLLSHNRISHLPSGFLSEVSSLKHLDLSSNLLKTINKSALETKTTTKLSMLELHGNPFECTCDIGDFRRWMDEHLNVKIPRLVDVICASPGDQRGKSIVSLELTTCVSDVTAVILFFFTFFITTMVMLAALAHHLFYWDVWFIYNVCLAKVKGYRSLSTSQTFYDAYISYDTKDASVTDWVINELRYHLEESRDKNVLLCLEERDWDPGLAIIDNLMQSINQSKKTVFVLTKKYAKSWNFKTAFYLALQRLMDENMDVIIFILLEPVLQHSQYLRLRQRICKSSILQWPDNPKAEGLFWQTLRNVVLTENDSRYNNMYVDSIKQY
In short: as §1

IC50 (human TLR9)	IC50 (human TLR8)	Compound
17300 nM	11.7 nM	COc1cc(-c2cc3[nH]c(=O)n(C4CCC(N5CC6(C5)CS(=O)(=O)C6)CC4)c3cc2C(C)C)cn2ncnc12 (single isomer, unassigned) [Example 245, 1-(4-(2,2-dioxido-2-thia-6-azaspiro[3.3]heptan-6-yl)cyclohexyl)-6-isopropyl-5-(8-methoxy-[1,2,4]triazolo[1,5-a]pyridin-6-yl)-1,3-dihydro-2H-benzo[d]imidazol-2-one]
15500 nM	0.16 nM	COc1cc(-c2cc3[nH]c(=O)n(C4CCC(N5CCC(F)(F)CC5)CC4)c3cc2C(C)C)cn2ncnc12 (single isomer, unassigned) [Example 246, 1-(4-(4,4-difluoropiperidin-1-yl)cyclohexyl)-6-isopropyl-5-(8-methoxy-[1,2,4]triazolo[1,5-a]pyridin-6-yl)-1,3-dihydro-2H-benzo[d]imidazol-2-one]
14900 nM	0.7 nM	COc1cc(-c2cc3[nH]c(=O)n(C4CCC(N5CCC(F)(F)CC5)CC4)c3cc2C(C)C)cn2ncnc12 (single isomer, unassigned) [Example 247, 1-(4-(4,4-difluoropiperidin-1-yl)cyclohexyl)-6-isopropyl-5-(8-methoxy-[1,2,4]triazolo[1,5-a]pyridin-6-yl)-1,3-dihydro-2H-benzo[d]imidazol-2-one]
9770 nM	0.17 nM	COc1cc(-c2cc3[nH]c(=O)n(C4CCC(N(C)CCC(F)(F)F)CC4)c3cc2C(C)C)cn2ncnc12 (single isomer, unassigned) [Example 248, 6-isopropyl-5-(8-methoxy-[1,2,4]triazolo[1,5-a]pyridin-6-yl)-1-(4-(methyl(3,3,3-trifluoropropyl)amino)cyclohexyl)-1,3-dihydro-2H-benzo[d]imidazol-2-one]
2000 nM	0.08 nM	COc1cc(-c2cc3[nH]c(=O)n(C4CCC(N(C)CCC(F)(F)F)CC4)c3cc2C(C)C)cn2ncnc12 (single isomer, unassigned) [Example 249, 6-isopropyl-5-(8-methoxy-[1,2,4]triazolo[1,5-a]pyridin-6-yl)-1-(4-(methyl(3,3,3-trifluoropropyl)amino)cyclohexyl)-1,3-dihydro-2H-benzo[d]imidazol-2-one]
40500 nM	1.85 nM	COc1c(C)c(-c2cc3[nH]c(=O)n(C4CCC(NCC5(S(C)(=O)=O)CC5)CC4)c3cc2C(C)C)cn2ncnc12 (single isomer, unassigned) [Example 259]
6360 nM	0.38 nM	COc1c(C)c(-c2cc3[nH]c(=O)n(C4CCC(NCC5(S(C)(=O)=O)CC5)CC4)c3cc2C(C)C)cn2ncnc12 (single isomer, unassigned) [Example 260]
18700 nM	2.23 nM	COc1c(C)c(-c2cc3[nH]c(=O)n(C4CCC(N5CCCOCC5)CC4)c3cc2C(C)C)cn2ncnc12 (single isomer, unassigned) [Example 261, 1-(4-(1,4-oxazepan-4-yl)cyclohexyl)-6-isopropyl-5-(8-methoxy-7-methyl-[1,2,4]triazolo[1,5-a]pyridin-6-yl)-1,3-dihydro-2H-benzo[d]imidazol-2-one]
15500 nM	0.68 nM	COc1c(C)c(-c2cc3[nH]c(=O)n(C4CCC(N5CCCOCC5)CC4)c3cc2C(C)C)cn2ncnc12 (single isomer, unassigned) [Example 262, 1-(4-(1,4-oxazepan-4-yl)cyclohexyl)-6-isopropyl-5-(8-methoxy-7-methyl-[1,2,4]triazolo[1,5-a]pyridin-6-yl)-1,3-dihydro-2H-benzo[d]imidazol-2-one]
19700 nM	2.91 nM	COc1c(C)c(-c2cc3[nH]c(=O)n(C4CCC(N5CC(F)C5)CC4)c3cc2C(C)C)cn2ncnc12 (single isomer, unassigned) [Example 263, 1-(4-(3-fluoroazetidin-1-yl)cyclohexyl)-6-isopropyl-5-(8-methoxy-7-methyl-[1,2,4]triazolo[1,5-a]pyridin-6-yl)-1,3-dihydro-2H-benzo[d]imidazol-2-one]
17500 nM	5.93 nM	COc1c(C)c(-c2cc3[nH]c(=O)n(C4CCC(N5CC(F)C5)CC4)c3cc2C(C)C)cn2ncnc12 (single isomer, unassigned) [Example 264, 1-(4-(3-fluoroazetidin-1-yl)cyclohexyl)-6-isopropyl-5-(8-methoxy-7-methyl-[1,2,4]triazolo[1,5-a]pyridin-6-yl)-1,3-dihydro-2H-benzo[d]imidazol-2-one]
> 50000 nM	0.12 nM	COc1c(C)c(-c2cc3[nH]c(=O)n(C4CCC(N5CCC6(CC5)COC6)CC4)c3cc2C(C)C)cn2ncnc12 (single isomer, unassigned) [Example 267, 1-(4-(2-oxa-7-azaspiro[3.5]nonan-7-yl)cyclohexyl)-6-isopropyl-5-(8-methoxy-7-methyl-[1,2,4]triazolo[1,5-a]pyridin-6-yl)-1,3-dihydro-2H-benzo[d]imidazol-2-one]
17400 nM	1.08 nM	COc1c(C)c(-c2cc3[nH]c(=O)n(C4CCC(N5CCC6(CC5)COC6)CC4)c3cc2C(C)C)cn2ncnc12 (single isomer, unassigned) [Example 268, 1-(4-(2-oxa-7-azaspiro[3.5]nonan-7-yl)cyclohexyl)-6-isopropyl-5-(8-methoxy-7-methyl-[1,2,4]triazolo[1,5-a]pyridin-6-yl)-1,3-dihydro-2H-benzo[d]imidazol-2-one]
25600 nM	1.58 nM	COc1c(C)c(-c2cc3[nH]c(=O)n(C4CCC(N5CC6(COC6)C5)CC4)c3cc2C(C)C)cn2ncnc12 (single isomer, unassigned) [Example 269, 1-(4-(2-oxa-6-azaspiro[3.3]heptan-6-yl)cyclohexyl)-6-isopropyl-5-(8-methoxy-7-methyl-[1,2,4]triazolo[1,5-a]pyridin-6-yl)-1,3-dihydro-2H-benzo[d]imidazol-2-one]

Compound	IC50 (human TLR9)	IC50 (human TLR8)
COc1cc(-c2cc3[nH]c(=O)n(C4CCC(N5C6CCC5COC6)CC4)c3cc2C(C)C)cn2ncnc12 (single isomer, unassigned) [Example 252, 1-(4-(3-oxa-8-azabicyclo[3.2.1]octan-8-yl)cyclohexyl)-6-isopropyl-5-(8-methoxy-[1,2,4]triazolo[1,5-a]pyridin-6-yl)-1,3-dihydro-2H-benzo[d]imidazol-2-one]	> 50000 nM	24.8 nM
COc1cc(-c2cc3[nH]c(=O)n(C4CCC(N5C6CCC5COC6)CC4)c3cc2C(C)C)cn2ncnc12 (single isomer, unassigned) [Example 253, 1-(4-(3-oxa-8-azabicyclo[3.2.1]octan-8-yl)cyclohexyl)-6-isopropyl-5-(8-methoxy-[1,2,4]triazolo[1,5-a]pyridin-6-yl)-1,3-dihydro-2H-benzo[d]imidazol-2-one]	11100 nM	4.33 nM
